Assay [1] is described as follows: NO antioxidant (nitric oxide scavenging) assay. The format is biochemical.
A short description of assay [2]: DPPH radical scavenging assay. The format is biochemical. Here is the method: The antioxidant activities of Plectranthus […] ethanolic extract was investigated using 1,1-Diphenyl-2-picrylhydrazyl (DPPH) free radical scavenging assay as described by Mavundza (Mavundza, 2010). To the top wells of a 96-well ELISA plate 200 μl of distilled water was added and to the remaining wells 110 μl of distilled water as a medium. Twenty microliters of plant extract and the controls was added to the first top wells that followed a double dilution. To each of the wells 90 μl of 90 μM DPPH ethanolic solution was added and left to incubate covered with aluminium foil for 30 minutes at room temperature. The final concentrations for the Plectranthus […] ethanolic extracts ranged from 3.9 to 500 μg/ml (Mavundza, 2010). […] The radical scavenging capacities of the extracts were determined by using a BIO-TEK Power Wave Multiwell plate reader ([…], South Africa) at 515 nm using KC Junior software (Highland Park, Winooski, Vermont, USA) to measure the disappearance of DPPH at 515 nm. The radical scavenging activity was determined as a percentage DPPH radical-scavenging that was calculated by the following equation, where AC is the absorbance of the control solution that only contains DPPH and AS is the absorbance of the plant sample in DPPH solution: % DPPH radical-scavenging=(AC-AS)/AC×100 […]

For the next assay, the target named is T1, MMP-9 enzyme (Homo sapiens, UniProt P14780).
T1 construct: purchased Enzo Life Sciences BML-AK410
T1 sequence (P14780 107-444 limits assumed): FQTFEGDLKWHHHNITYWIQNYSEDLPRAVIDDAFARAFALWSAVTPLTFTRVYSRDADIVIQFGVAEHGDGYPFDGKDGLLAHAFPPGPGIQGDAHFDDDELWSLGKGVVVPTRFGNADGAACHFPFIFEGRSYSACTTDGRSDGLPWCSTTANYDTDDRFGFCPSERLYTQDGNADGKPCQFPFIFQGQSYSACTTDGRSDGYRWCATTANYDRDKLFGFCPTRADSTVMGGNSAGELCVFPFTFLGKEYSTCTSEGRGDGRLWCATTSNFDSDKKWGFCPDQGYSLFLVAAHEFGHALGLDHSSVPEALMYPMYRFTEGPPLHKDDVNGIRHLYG
The assay is described as follows: Matrix metalloproteinase-9 assay (colorimetric kit). The format is biochemical. The note with it: at 0.411 μg/ml, single concentration. Here is the method: The MMP-9 Colorimetric Drug Discovery Kit (BML-AK410) from Enzo Life Sciences was used. The experiment was carried out as described in the instruction manual. The MMP chromogenic substrate (Ac-PLG-[2-mercapto-4-methyl-pentanoyl]-LG-OC2H5) and the inhibitor N-Isobutyl-N-(4-methoxyphenylsulfonyl)glycyl hydroxamic acid (NNGH) was thawed to room temperature. The inhibitor was diluted 1/200 in assay buffer (50 mM HEPES, 10 mM CaCl2, 0.05% Brij-35, 1 mM DTNB, pH 7.5) and warmed until 37° C. The substrate was diluted 1/25 in assay buffer to the required volume. The MMP-9 enzyme was diluted in assay buffer to 1/60 and warmed until 37° C. just before the assay. The plant extract was dissolved in dimethyl sulfoxide (DMSO) to a starting concentration of 2 mg/ml.
In the plant extract wells, 50 μl of plant extract and 90 μl of buffer was added to the first well of the 96 well plate (½ volume). To the rest of the plant extract wells, 70 μl of buffer was added and the plant extracts serially diluted. Assay buffer was plated in the rest of the relevant wells as follows: blank 90 μl, control 70 μl, and NNGH 50 μl. […] The plates were continuously read at A412nm by using a BIO-TEK Power Wave Multiwell plate reader (A.D.P., Weltevreden Park, South Africa) at one (1) minute intervals for twenty (20) minutes using KC Junior software (Highland Park, Winooski, Vermont, USA).

In assay [3] the test system is Cutibacterium acnes (ATCC 6919). The assay is described as follows: Antibacterial assay (MIC, broth microdilution, Presto Blue). The format is cell-based. Conditions: ATCC6919, C. acnes ATCC 6919, 72 hours, anaerobic, read-out: minimum inhibitory concentration (MIC). Here is the method:
The ethanolic extract of Plectranthus […] tested against Cutibacterium acnes (ATCC 6919). The C. acnes bacteria was cultured from a Kwik-Stick on mouse heart and brain agar and then incubated at 37° C. for 72 hours under anaerobic conditions before the assay was done. The 72 hour old bacterial culture was dissolved in brain heart infusion broth and the suspension was adjusted to a 0.5 McFarland standard turbidity. This led to 10^5-10^6 colony forming units (CFU)/ml. In a sterile 96-well plate, 100 μl of the samples from the stock solution that consisted of the plant extracts (2 mg/ml dissolved in 10% dimethyl sulphoxide (DMSO)) and tetracycline the positive control (0.2 mg/ml) was diluted with broth. Twofold serial dilutions were done in broth over a range to give the concentrations 500-3.9 μg/ml for the plant extract and 50-0.3 μg/ml for tetracycline. To all the wells of the 96-well plate, 100 μl of bacterial suspension was added. The solvent control wells contained 2.5% DMSO with bacterial suspension and no plant samples and the negative control, bacterial suspension with no plant samples. The plates were incubated at 37° C. for 72 hours under anaerobic conditions.
(In general: In broth dilution the organism is exposed to a series of concentrations in liquid medium.)

In assay [4] the test system is COX-2 protein levels in HT-29 cells. Conditions: at 3.6 μg/ml; cited from earlier work.

Each structure is given as a SMILES string. Converted amounts (≈) assume the structure as drawn.

Turning to `O=C1O[C@H]([C@@H](O)CO)C(O)=C1O` [vitamin C, L-ascorbic acid], the “nitric oxide (NO) antioxidant activity IC50” value in assay [1] was found to be 65.8 ± 5.9 µg/mL. The “DPPH antioxidant activity IC50” value in assay [2] amounted to 9.0 ± 2.0 µg/mL.

Take `COc1ccc(S(=O)(=O)N(CC(=O)NO)CC(C)C)cc1` [positive control, N-Isobutyl-N-(4-methoxyphenylsulfonyl)glycyl hydroxamic acid]: the MMP-9 inhibition at MMP-9 enzyme was determined as 96%.

In the case of `O=c1cc(-c2ccc(O)c(O)c2)oc2cc(O)cc(O)c12` [Luteolin], the MIC in assay [3] is 62.5 µg/mL (≈ 218 µM).

For `CN(C)[C@@H]1C(O)=C(C(N)=O)C(=O)[C@@]2(O)C(O)=C3C(=O)c4c(O)cccc4[C@@](C)(O)[C@H]3C[C@@H]12` [tetracycline], the MIC in assay [3] was 0.78 µg/mL (≈ 1.76 µM).

`O=C(/C=C/c1ccc(O)c(O)c1)O[C@H](Cc1ccc(O)c(O)c1)C(=O)O` [rosmarinic acid]: in assay [4], the “effect on COX-2 protein levels” value is “reduced COX-2 protein levels in HT-29 cells to levels comparable to that of the control cells”.

Source of the values: patent publication US12097235B2, “Anti-acne pharmaceutical compositions” (priority 2018, dated 2024).
